Data reported in ChEMBL document CHEMBL1149222, “Synthesis and in vitro antimycobacterial activity of novel 3-(1H-pyrrol-1-yl)-2-oxazolidinone analogues of PNU-100480” (2004).
≈ marks a conversion by molar mass, not a printed value.

Tests used:
Type in all cases: functional
[1] = test system: Mycobacterium tuberculosis; test: In vitro anti-mycobacterial activity against streptomycin resistant Mycobacterium tuberculosis ATCC 35820 determined by the MTT method
[2] = test system: Mycobacterium tuberculosis; test: In vitro anti-mycobacterial activity against ethambutol resistant Mycobacterium tuberculosis ATCC 35837 was determined
[3] = test system: Mycobacterium tuberculosis; test: In vitro anti-mycobacterial activity against pirazynamide resistant Mycobacterium tuberculosis ATCC 35828 determined by the MTT method
[4] = test system: Mycobacterium tuberculosis; test: In vitro anti-mycobacterial activity against streptomycin resistant Mycobacterium tuberculosis ATCC 35820 was determined
[5] = test system: Mycobacterium tuberculosis; test: In vitro anti-mycobacterial activity against ethambutol resistant Mycobacterium tuberculosis ATCC 35837 determined by the MTT method
[6] = test system: Mycobacterium tuberculosis; test: In vitro anti-mycobacterial activity against pirazynamide resistant Mycobacterium tuberculosis ATCC 35828 was determined

Structure (SMILES): CC(=O)NC[C@H]1CN(c2ccn(-c3cccc(F)c3)c2)C(=O)O1
- MIC90 [1]: > 100 µM
- MIC50 [2]: 7 µM (≈ 2.22 µg/mL)
- MIC90 [3]: 63.9 µM (≈ 20.3 µg/mL)
- MIC50 [4]: 0.9 µM (≈ 0.286 µg/mL)
- MIC90 [5]: 24.9 µM (≈ 7.9 µg/mL)
- MIC50 [6]: 18.4 µM (≈ 5.84 µg/mL)

Structure (SMILES): CC(=O)NC[C@H]1CN(c2ccn(-c3ccccc3)c2)C(=O)O1
- MIC90 [1]: ≥ 100 µM
- MIC50 [2]: 23.8 µM (≈ 7.12 µg/mL)
- MIC90 [3]: > 100 µM
- MIC50 [4]: 5.6 µM (≈ 1.68 µg/mL)
- MIC90 [5]: 100 µM (≈ 29.9 µg/mL)
- MIC50 [6]: 50.3 µM (≈ 15.1 µg/mL)

Structure (SMILES): CC(=O)NC[C@H]1CN(c2ccn(N3CCOCC3)c2)C(=O)O1
- MIC50 [2]: > 100 µM
- MIC50 [4]: > 100 µM
- MIC50 [6]: > 100 µM

Structure (SMILES): CC(=O)NC[C@H]1CN(c2ccn(-c3ccccc3F)c2)C(=O)O1
- MIC90 [1]: 45 µM (≈ 14.3 µg/mL)
- MIC50 [2]: 7 µM (≈ 2.22 µg/mL)
- MIC90 [3]: 58.7 µM (≈ 18.6 µg/mL)
- MIC50 [4]: 1.1 µM (≈ 0.349 µg/mL)
- MIC90 [5]: 23.9 µM (≈ 7.58 µg/mL)
- MIC50 [6]: 10 µM (≈ 3.17 µg/mL)

Structure (SMILES): CC(=O)NC[C@H]1CN(c2ccn(-c3ccc(N4CCOCC4)c(F)c3)c2)C(=O)O1
- MIC90 [1]: > 100 µM
- MIC50 [2]: 63.5 µM (≈ 25.6 µg/mL)
- MIC90 [3]: > 100 µM
- MIC50 [4]: 4.9 µM (≈ 1.97 µg/mL)
- MIC50 [6]: > 100 µM

Structure (SMILES): CC(=O)NC[C@H]1CN(c2ccn(-c3ccc(F)cc3)c2)C(=O)O1
- MIC90 [1]: 39.9 µM (≈ 12.7 µg/mL)
- MIC50 [2]: 13.5 µM (≈ 4.28 µg/mL)
- MIC90 [3]: 73.7 µM (≈ 23.4 µg/mL)
- MIC50 [4]: 0.8 µM (≈ 0.254 µg/mL)
- MIC90 [5]: 56.6 µM (≈ 18 µg/mL)
- MIC50 [6]: 21.5 µM (≈ 6.82 µg/mL)

Structure (SMILES): NNC(=O)c1ccncc1 [ISONIAZID]
- MIC90 [1]: > 100 µM
- MIC50 [2]: 0.2 µM (≈ 0.0274 µg/mL)
- MIC90 [3]: > 100 µM
- MIC50 [4]: 1.3 µM (≈ 0.178 µg/mL)
- MIC90 [5]: 13 µM (≈ 1.78 µg/mL)
- MIC50 [6]: 0.1 µM (≈ 0.0137 µg/mL)

Structure (SMILES): CC(=O)NC[C@H]1CN(c2ccc(N3CCSCC3)c(F)c2)C(=O)O1 [SUTEZOLID]
- MIC90 [1]: 0.4 µM (≈ 0.141 µg/mL)
- MIC50 [2]: 0.06 µM (≈ 0.0212 µg/mL)
- MIC90 [3]: 0.7 µM (≈ 0.247 µg/mL)
- MIC50 [4]: 5.6 µM (≈ 1.98 µg/mL)
- MIC90 [5]: 0.3 µM (≈ 0.106 µg/mL)
- MIC50 [6]: 0.1 µM (≈ 0.0353 µg/mL)
